Reference: ChEMBL document CHEMBL3739404, “Arylsulfonamide derivatives of (aryloxy)ethylpiperidines as selective 5-HT7receptor antagonists and their psychotropic properties” (Medchemcomm, 2015)
Active and inactive are the calls of the source. The rule behind the calls is not given here.

Columns and labels:
[1] = target: T1, Adrenergic receptor alpha-1 (Rattus norvegicus, UniProt P15823+P23944+P43140); experiment: Displacement of [3H]-Prazosin from alpha-1 adrenergic receptor in rat cerebral cortex after 1 hr by microplate reader based assay; type: tissue-based
T1 sequence (P15823 whole entry): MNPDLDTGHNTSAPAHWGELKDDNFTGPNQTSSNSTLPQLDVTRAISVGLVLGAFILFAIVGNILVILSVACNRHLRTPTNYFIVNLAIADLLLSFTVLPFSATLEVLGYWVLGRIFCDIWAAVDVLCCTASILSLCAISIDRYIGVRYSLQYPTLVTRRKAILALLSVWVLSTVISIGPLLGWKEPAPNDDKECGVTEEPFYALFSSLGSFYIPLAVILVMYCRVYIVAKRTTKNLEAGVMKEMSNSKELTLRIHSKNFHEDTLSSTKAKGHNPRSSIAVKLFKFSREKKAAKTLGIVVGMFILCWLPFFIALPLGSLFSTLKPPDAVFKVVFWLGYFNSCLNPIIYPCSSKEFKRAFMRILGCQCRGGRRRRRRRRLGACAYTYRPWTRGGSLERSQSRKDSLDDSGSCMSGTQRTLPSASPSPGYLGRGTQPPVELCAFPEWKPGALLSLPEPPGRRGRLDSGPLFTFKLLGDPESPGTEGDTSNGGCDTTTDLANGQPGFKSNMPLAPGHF
T1 sequence (P23944 whole entry): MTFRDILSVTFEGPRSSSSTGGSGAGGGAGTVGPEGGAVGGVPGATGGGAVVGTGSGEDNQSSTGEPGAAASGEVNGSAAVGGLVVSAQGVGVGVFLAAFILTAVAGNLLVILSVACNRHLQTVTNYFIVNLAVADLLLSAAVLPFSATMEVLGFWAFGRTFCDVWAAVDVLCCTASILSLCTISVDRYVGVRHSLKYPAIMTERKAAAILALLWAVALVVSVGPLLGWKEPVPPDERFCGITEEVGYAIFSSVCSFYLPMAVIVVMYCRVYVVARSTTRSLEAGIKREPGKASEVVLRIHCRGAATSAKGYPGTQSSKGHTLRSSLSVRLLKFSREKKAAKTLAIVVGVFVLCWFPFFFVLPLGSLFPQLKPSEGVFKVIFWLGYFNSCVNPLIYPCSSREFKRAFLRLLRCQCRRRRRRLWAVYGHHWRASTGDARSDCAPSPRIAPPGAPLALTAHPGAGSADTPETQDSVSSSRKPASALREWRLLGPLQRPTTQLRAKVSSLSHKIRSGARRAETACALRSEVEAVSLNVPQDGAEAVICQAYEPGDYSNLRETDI
T1 sequence (P43140 whole entry): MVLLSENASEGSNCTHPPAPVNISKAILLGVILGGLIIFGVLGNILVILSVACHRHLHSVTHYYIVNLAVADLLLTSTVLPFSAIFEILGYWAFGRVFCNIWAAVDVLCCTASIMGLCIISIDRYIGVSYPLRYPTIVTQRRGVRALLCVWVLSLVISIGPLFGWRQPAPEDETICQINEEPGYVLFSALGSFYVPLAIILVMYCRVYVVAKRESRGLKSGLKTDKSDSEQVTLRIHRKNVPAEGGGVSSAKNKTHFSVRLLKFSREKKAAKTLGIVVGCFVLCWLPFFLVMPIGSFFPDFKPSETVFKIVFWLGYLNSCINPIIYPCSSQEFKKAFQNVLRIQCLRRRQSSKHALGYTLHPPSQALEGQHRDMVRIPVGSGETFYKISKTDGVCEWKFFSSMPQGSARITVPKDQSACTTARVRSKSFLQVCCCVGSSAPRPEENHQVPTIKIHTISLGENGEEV

HEK293 = experiment: Selectivity ratio of Ki for human 5-HT1A receptor to Ki for human 5-HT7B receptor expressed in HEK293 cells; type: cell-based
[2] = target: T2, 5-hydroxytryptamine receptor 1A (Homo sapiens, UniProt P08908); experiment: Displacement of [3H]-8-OH-DPAT from human serotonin 5-HT1A receptor expressed in HEK293 cells after 1 hr by microplate reader based assay; type: cell-based
T2 sequence (P08908 whole entry): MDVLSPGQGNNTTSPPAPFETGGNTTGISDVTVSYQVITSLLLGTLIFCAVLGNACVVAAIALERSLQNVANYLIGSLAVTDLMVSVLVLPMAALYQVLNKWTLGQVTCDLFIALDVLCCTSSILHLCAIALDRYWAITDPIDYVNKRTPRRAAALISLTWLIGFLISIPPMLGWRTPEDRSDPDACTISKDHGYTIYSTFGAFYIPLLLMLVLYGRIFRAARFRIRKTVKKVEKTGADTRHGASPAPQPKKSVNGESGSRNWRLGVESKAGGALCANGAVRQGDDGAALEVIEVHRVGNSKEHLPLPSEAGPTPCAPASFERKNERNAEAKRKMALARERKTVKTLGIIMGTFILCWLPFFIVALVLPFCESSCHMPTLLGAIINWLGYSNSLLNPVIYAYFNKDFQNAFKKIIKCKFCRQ

[3] = target: T3, 5-hydroxytryptamine receptor 7 (Homo sapiens, UniProt P34969); experiment: Displacement of [3H]-5-carboxyamidotryptamine from human serotonin 5-HT7B receptor expressed in HEK293 cells after 1 hr by microplate reader based assay; type: cell-based
Mus musculus [4] = experiment: Toxicity in albino Swiss mouse assessed as effect on spontaneous locomotor activity at 2.5 mg/kg, ip dosed 60 mins before test measured for 2 to 6 mins by M3 multichannel activity test; type: organism-based; settings: in vivo
[5] = target: Beta-1 adrenergic receptor (Homo sapiens) (UniProt P08588); experiment: Binding affinity to beta-1 adrenergic receptor (unknown origin) at 1 uM
[6] = target: T3, 5-hydroxytryptamine receptor 7; experiment: Antagonist activity at human 5-HT7B receptor expressed in HEK293 cells assessed as inhibition of 5-carboxyamidotryptamine-induced cAMP production after 30 mins by TR-FRET assay; type: functional, cell-based
Mus musculus [7] = experiment: Anxiolytic-like activity in albino Swiss mouse assessed as increase in number of punished crossings at 1.25 mg/kg, ip dosed 60 mins before test by four plate test; type: functional
Mus musculus [8] = experiment: Toxicity in albino Swiss mouse assessed as effect on spontaneous locomotor activity at 1.25 mg/kg, ip dosed 60 mins before test measured for 1 min 15 secs by M3 multichannel activity test; type: organism-based; settings: in vivo
[9] = target: Histamine H1 receptor (Homo sapiens) (UniProt P35367); experiment: Binding affinity to histamine H1 receptor (unknown origin) at 1 uM
D(2) dopamine receptor = D(2) dopamine receptor (Homo sapiens, UniProt P14416); experiment: Displacement of [3H]-Raclopride from human dopamine D2L receptor expressed in HEK293 cells after 1 hr by microplate reader based assay; type: cell-based
[10] = target: 5-hydroxytryptamine receptor 6 (Homo sapiens, UniProt P50406); experiment: Displacement of [3H]-LSD from human serotonin 5-HT6 receptor expressed in HEK293 cells after 1 hr by microplate reader based assay; type: cell-based
[11] = target: T4, Muscarinic acetylcholine receptor M1 (Homo sapiens) (UniProt P11229); experiment: Binding affinity to muscarinic acetylcholine receptor M1 (unknown origin) at 1 uM
T4 sequence (whole entry): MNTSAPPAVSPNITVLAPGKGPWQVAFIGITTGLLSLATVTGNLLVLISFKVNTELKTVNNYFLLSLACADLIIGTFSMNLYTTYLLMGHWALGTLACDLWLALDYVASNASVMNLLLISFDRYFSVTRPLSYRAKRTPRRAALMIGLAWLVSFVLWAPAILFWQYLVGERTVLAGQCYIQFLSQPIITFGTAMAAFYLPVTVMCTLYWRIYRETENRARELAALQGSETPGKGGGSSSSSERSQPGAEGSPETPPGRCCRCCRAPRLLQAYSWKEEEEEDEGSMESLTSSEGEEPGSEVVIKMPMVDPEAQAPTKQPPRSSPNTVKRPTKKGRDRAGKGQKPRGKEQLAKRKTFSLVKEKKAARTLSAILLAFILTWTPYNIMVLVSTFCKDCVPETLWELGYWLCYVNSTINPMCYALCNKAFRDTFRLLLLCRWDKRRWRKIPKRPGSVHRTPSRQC

Rattus norvegicus = experiment: Pro-cognitive effect in Sprague-Dawley rat assessed as reduction in PCP-induced memory deficits administered ip 1 hr 15 mins before familiarization phase by novel object recognition test; type: functional, organism-based
[12] = target: T3, 5-hydroxytryptamine receptor 7; experiment: Antagonist activity at human serotonin 5-HT7B receptor expressed in CHO cells assessed as inhibition of serotonin-induced cAMP production at 1 uM after 30 mins by HTRF assay relative to control; type: functional, cell-based
Mus musculus [13] = experiment: Antidepressant-like activity in albino Swiss mouse assessed as reduction in immobility time at 10 mg/kg, ip dosed 60 mins before test by forced swim test; type: functional
[14] = target: T3, 5-hydroxytryptamine receptor 7; experiment: Antagonist activity at human serotonin 5-HT7B receptor expressed in CHO cells assessed as inhibition of serotonin-induced cAMP production after 30 mins by HTRF assay; type: functional, cell-based
Mus musculus [15] = experiment: Toxicity in albino Swiss mouse assessed as effect on spontaneous locomotor activity at 5 mg/kg, ip dosed 60 mins before test measured for 2 to 6 mins by M3 multichannel activity test; type: organism-based; settings: in vivo
Mus musculus [16] = experiment: Toxicity in ip dosed albino Swiss mouse assessed as effect on spontaneous locomotor activity dosed 60 mins before test measured for 1 min 15 secs by M3 multichannel activity test; type: organism-based; settings: in vivo

D(2) dopamine receptor, sequence (P14416 whole entry): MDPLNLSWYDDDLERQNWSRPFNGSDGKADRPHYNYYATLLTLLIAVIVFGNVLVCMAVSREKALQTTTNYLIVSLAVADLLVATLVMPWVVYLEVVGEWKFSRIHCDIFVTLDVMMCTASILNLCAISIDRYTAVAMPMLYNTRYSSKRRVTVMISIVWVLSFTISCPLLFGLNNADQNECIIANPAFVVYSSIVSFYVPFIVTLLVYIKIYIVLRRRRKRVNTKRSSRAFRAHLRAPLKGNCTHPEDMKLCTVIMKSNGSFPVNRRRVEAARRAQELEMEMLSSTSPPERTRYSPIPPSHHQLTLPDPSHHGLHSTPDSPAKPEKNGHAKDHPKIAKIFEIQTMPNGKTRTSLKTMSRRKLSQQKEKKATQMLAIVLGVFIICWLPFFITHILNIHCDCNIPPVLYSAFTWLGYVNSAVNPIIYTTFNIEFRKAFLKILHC
T3 sequence (P34969 whole entry): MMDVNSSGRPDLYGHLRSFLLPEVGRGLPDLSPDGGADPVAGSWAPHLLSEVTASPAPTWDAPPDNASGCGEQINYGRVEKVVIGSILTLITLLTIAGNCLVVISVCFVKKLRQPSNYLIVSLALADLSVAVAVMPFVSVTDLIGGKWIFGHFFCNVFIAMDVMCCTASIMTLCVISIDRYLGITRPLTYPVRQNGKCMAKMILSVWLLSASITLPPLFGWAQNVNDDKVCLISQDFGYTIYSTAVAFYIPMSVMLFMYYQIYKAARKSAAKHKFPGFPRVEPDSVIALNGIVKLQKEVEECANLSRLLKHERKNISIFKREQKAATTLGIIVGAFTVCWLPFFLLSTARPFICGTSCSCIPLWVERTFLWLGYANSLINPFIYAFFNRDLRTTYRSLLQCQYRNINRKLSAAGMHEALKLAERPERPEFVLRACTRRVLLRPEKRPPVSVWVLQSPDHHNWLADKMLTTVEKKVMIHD
5-hydroxytryptamine receptor 6, sequence (P50406 whole entry): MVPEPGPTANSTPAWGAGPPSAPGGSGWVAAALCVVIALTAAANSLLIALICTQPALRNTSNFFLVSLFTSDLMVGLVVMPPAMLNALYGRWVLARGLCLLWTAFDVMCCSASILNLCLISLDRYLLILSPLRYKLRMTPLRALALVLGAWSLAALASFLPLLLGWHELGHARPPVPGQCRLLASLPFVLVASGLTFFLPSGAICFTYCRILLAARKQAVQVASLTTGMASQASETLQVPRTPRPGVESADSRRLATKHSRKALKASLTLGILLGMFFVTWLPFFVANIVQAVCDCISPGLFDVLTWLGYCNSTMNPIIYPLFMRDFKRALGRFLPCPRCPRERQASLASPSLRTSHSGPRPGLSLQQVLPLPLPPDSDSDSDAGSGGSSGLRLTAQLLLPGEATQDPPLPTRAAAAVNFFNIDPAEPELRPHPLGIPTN
Beta-1 adrenergic receptor (Homo sapiens), sequence (P08588 whole entry, looked up): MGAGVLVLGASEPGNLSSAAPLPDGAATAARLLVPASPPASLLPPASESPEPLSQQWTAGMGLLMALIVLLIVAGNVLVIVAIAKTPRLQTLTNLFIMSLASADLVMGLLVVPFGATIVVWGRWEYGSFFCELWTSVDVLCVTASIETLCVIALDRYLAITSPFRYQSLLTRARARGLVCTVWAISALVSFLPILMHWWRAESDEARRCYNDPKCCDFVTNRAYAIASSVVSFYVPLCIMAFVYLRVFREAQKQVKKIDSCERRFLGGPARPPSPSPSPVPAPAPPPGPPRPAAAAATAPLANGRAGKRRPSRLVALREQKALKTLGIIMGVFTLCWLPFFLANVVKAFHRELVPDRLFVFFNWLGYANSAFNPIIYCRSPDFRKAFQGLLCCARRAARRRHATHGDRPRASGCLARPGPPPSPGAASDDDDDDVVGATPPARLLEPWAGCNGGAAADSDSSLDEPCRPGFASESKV
Histamine H1 receptor (Homo sapiens), sequence (P35367 whole entry): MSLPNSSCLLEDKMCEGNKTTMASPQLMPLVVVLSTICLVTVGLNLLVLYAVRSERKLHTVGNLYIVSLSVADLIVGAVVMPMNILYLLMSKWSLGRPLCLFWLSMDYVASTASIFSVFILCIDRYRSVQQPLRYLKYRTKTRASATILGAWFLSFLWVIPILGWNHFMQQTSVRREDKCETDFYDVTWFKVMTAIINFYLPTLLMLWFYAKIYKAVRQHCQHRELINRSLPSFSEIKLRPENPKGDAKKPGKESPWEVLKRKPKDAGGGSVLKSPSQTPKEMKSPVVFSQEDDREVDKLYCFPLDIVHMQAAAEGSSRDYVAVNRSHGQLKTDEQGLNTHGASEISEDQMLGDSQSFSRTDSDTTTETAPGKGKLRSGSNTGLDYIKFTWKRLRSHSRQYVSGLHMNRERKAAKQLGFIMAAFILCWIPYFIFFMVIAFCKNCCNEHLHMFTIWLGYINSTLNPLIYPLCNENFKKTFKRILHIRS

| Compound | Ratio Ki (HEK293) | Ki [2] | Ki [3] | further results |
| --- | --- | --- | --- | --- |
| O=S(=O)(NC1CCN(CCOc2ccccc2-c2ccccc2)CC1)c1ccc(F)c(F)c1 | 45 | – | – | Ki [1]: 2541 nM |
| O=S(=O)(NC1CCN(CCOc2ccccc2-c2ccccc2)CC1)c1cccc2ncccc12 | 13 | 102 nM | 8 nM | – |
| O=S(=O)(NC1CCN(CCOc2ccccc2-c2ccccc2)CC1)c1cc(F)ccc1F | 26 | 183 nM | 7 nM | – |
| CC(C)c1ccccc1OCCN1CCC(NS(=O)(=O)c2ccccc2)CC1 | 6 | 249 nM | 42 nM | – |
| O=S(=O)(NC1CCN(CCOc2ccccc2-c2ccccc2)CC1)c1ccccc1 | 6 | 279 nM | 49 nM | – |
| CC(C)CS(=O)(=O)NC1CCN(CCOc2ccccc2-c2ccccc2)CC1 | 2 | 74 nM | 44 nM | – |
| O=S(=O)(NC1CCN(CCOc2ccccc2-c2ccccc2)CC1)c1ccc(F)cc1 | 23 | 159 nM | 7 nM | – |
| O=S(=O)(NC1CCN(CCOc2ccccc2-c2ccccc2)CC1)c1cncc2ccccc12 | 8 | 74 nM | 9 nM | – |
| CC(C)c1ccccc1OCCN1CCC(NS(=O)(=O)c2cccc(F)c2)CC1 | – | 356 nM | 9 nM | Activity (Mus musculus [4]): Non-toxic; Activity [5]: < 10%; Kb [6]: 26 nM; Activity (Mus musculus [7]): 75%; Activity (Mus musculus [8]): Non-toxic; Activity [9]: < 74%; Ki (D(2) dopamine receptor): 102 nM; Ki [10]: 471 nM; Activity [11]: < 10%; Activity (Rattus norvegicus): Dose-dependent effect |
| O=S(=O)(NC1CCN(CCOc2ccccc2-c2ccccc2)CC1)c1cccc(Cl)c1 | 33 | 234 nM | 6 nM | inhibition [12]: 95%; Ki [1]: 2019 nM; Ki (D(2) dopamine receptor): 85 nM; Ki [10]: 276 nM; Activity (Rattus norvegicus): Dose-dependent effect |
| CC(C)c1ccccc1OCCN1CCC(NS(=O)(=O)c2cccc3ncccc23)CC1 | 33 | 232 nM | 7 nM | inhibition [12]: 96%; Ki [1]: 712 nM; Ki (D(2) dopamine receptor): 104 nM; Ki [10]: 233 nM; Activity (Rattus norvegicus): Dose-dependent effect |
| CC(C)c1ccccc1OCCN1CCC(NS(=O)(=O)c2cnn(C)c2)CC1 | 32 | 616 nM | 19 nM | inhibition [12]: 85%; Ki [1]: 389 nM; Ki (D(2) dopamine receptor): 140 nM; Ki [10]: 641 nM |
| CC(C)c1ccccc1OCCN1CCC(NS(=O)(=O)c2cc(F)ccc2F)CC1 | 26 | 208 nM | 8 nM | inhibition [12]: 84%; Ki [1]: 589 nM; Ki (D(2) dopamine receptor): 147 nM; Ki [10]: 324 nM; Activity (Mus musculus [13]): Active |
| CC(C)c1ccccc1OCCN1CCC(NS(=O)(=O)c2ccc(F)c(F)c2)CC1 | 14 | 373 nM | 28 nM | – |
| O=S(=O)(NC1CCN(CCOc2ccccc2-c2ccccc2)CC1)c1cccc(F)c1 | 10 | 368 nM | 36 nM | – |
| CC(C)CS(=O)(=O)NC1CCN(CCOc2ccccc2C(C)C)CC1 | 1 | 278 nM | 200 nM | – |
| O=S(=O)(NC1CCN(CCOc2ccccc2-c2ccccc2)CC1)c1ccc(Cl)s1 | 16 | 190 nM | – | – |
| CC(C)c1ccccc1OCCN1CCC(NS(=O)(=O)c2cncc3ccccc23)CC1 | 5 | 103 nM | 21 nM | – |
| CC(C)c1ccccc1OCCN1CCC(NS(=O)(=O)c2ccc(Cl)s2)CC1 | 19 | 455 nM | 24 nM | – |
| CC(C)c1ccccc1OCCN1CCC(NS(=O)(=O)c2cccc(Cl)c2)CC1 | 22 | 178 nM | 8 nM | – |
| CC(C)c1ccccc1OCCN1CCC(NS(=O)(=O)c2ccccc2F)CC1 | – | – | – | Kb [14]: 1 nM; Activity [5]: < 10%; Activity (Mus musculus [15]): Non-toxic; Kb [6]: 12 nM; Ki [1]: 629 nM; Activity [9]: < 74%; Ki (D(2) dopamine receptor): 51 nM; Ki [10]: 240 nM; Activity (Mus musculus [16]): Non-toxic; Activity [11]: < 10%; Activity (Rattus norvegicus): Dose-dependent effect |
| Cn1cc(S(=O)(=O)NC2CCN(CCOc3ccccc3-c3ccccc3)CC2)cn1 | 17 | 321 nM | 19 nM | – |
